This is an account of results in patent US20100160391A1, “Substituted Aminopyridines as Fluorescent Reporters for Amide Hydrolases” (priority 2006, published 2010).

Data set [1] concerns amidases, human liver microsomes. The data set can be described thus: Specific activity, human liver microsomes. Type of data set: biochemical. To be noted: pH 8.0, 37° C.; NM = not measurable at the same protein concentration as other substrates. As to the method:
Comparison of the lowest detection limits of protein concentration of FAAH toward colorimetric and fluorescent substrates. In general, all assays were performed in 96-well styrene flat-bottom microtiter plates with a Spectra Max M2 spectrophotometer at 37° C. for […]. The total volume of each well was 201 μl consisting of 0.1 M sodium phosphate buffer (pH 8.0) (190 μl) containing 1% glycerol and 0.1% Triton-X 100, stock or diluted protein solution (10 μl), and the substrate solution (1 μl) in ethanol (final concentration 200 μM for 10, 11, 13 or 14) or in DMSO (final concentration 25 μM for 12, 15, or 16; 50 μM for 17). The lowest detection limits of microsomal fatty acid amide hydrolase (FAAH) by substrates were determined by the fact that the signal at 10 min after kinetic measurements are equal to or over three times the noise or basal line at 0 min. Colorimetric substrate (16) assays were performed in clear 96-well microtititer plates using an absorbance wavelength at 382 nm. The fluorescent substrates containing 5-amino-2-methoxypyridine (e.g., 10, 13) were measured at an excitation wavelength (302 nm), emission wavelength (396 nm), and auto cutoff wavelength (325 nm). Similarly, the fluorescent substrates containing 5-amino-2-methoxy-6-methylpyridine (e.g., 11, 14, and 17) were measured at an excitation wavelength (304 nm), emission wavelength (392 nm), and an auto cutoff wavelength of 325 nm. In addition, an excitation wavelength (366 nm), emission wavelength (496 nm), and auto cutoff wavelength (495 nm) were used for the substrates (e.g., 12 and 15) containing 7-amino-4-trifluoromethyl coumarin.
Specific activity determination. The assays for specific activities were performed as described above for the sensitivity assay. The specific activity presented is based on the following: 1) the signal after a 10 min enzymatic reaction was at least 3 fold the baseline signal at 0 min, and 2) the amount of hydrolyzed substrate during a 10 min period was less than 10% of the total amount of the substrate added. To correct for protein-induced fluorescence quenching, a standard curve of 5-amino-2-methoxypyridine (6) or 5-amino-2-methoxy-6-methylpyridine (8) was constructed in the presence of the same protein concentration used for the assay of that enzyme.

`CCCCCCCC(=O)Nc1ccc(OC)nc1` [Compound 13, N-(6-methoxypyridin-3-yl) octanamide] registered a melting point of 61.2 to 61.7 °C. Further, in data set [1], the “Specific activity, Human liver microsomes” value amounted to 0.46 ± 0.06 nmol/min/mg protein.

One may read the melting point as the temperature of the solid-liquid transition.
